Assay results: patent US11274100B2, “EP300/CREBBP inhibitor” (Daiichi Sankyo Company, Limited, priority 2017, dated 2022)

Key:
CREBBP = CREBBP (Homo sapiens, UniProt Q92793); test: Histone acetyltransferase inhibitory activity against CREBBP (Test Example 1); type: biochemical; conditions: 125 ng/mL CREBBP, 2 μM Acetyl-CoA, 100 nM Histone H4(1-25)-GSGSK (Biotin), 28° C. for 1 hour
Procedure, shortened: (§1)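 Enzyme (50 ng/mL EP300 or 125 ng/mL CREBBP) incubated 1 h at 28° C with 2 μM acetyl-CoA, 100 nM biotinylated histone H4(1-25) peptide and 10 to 0.0006 μM compound in pH 8.0 Tris buffer with 330 nM trichostatin A, 1% DMSO. Reaction stopped with Lys-CoA; acetylation read by TR-FRET (Eu-anti pan-Ac/Sta-ULight) after overnight room-temperature incubation.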

EP300 = EP300 (Homo sapiens, UniProt Q09472); test: Histone acetyltransferase inhibitory activity against EP300 (Test Example 1); type: biochemical; conditions: 50 ng/mL EP300, 2 μM Acetyl-CoA, 100 nM Histone H4(1-25)-GSGSK (Biotin), 28° C. for 1 hour
Chain of EP300 (Q09472 whole entry): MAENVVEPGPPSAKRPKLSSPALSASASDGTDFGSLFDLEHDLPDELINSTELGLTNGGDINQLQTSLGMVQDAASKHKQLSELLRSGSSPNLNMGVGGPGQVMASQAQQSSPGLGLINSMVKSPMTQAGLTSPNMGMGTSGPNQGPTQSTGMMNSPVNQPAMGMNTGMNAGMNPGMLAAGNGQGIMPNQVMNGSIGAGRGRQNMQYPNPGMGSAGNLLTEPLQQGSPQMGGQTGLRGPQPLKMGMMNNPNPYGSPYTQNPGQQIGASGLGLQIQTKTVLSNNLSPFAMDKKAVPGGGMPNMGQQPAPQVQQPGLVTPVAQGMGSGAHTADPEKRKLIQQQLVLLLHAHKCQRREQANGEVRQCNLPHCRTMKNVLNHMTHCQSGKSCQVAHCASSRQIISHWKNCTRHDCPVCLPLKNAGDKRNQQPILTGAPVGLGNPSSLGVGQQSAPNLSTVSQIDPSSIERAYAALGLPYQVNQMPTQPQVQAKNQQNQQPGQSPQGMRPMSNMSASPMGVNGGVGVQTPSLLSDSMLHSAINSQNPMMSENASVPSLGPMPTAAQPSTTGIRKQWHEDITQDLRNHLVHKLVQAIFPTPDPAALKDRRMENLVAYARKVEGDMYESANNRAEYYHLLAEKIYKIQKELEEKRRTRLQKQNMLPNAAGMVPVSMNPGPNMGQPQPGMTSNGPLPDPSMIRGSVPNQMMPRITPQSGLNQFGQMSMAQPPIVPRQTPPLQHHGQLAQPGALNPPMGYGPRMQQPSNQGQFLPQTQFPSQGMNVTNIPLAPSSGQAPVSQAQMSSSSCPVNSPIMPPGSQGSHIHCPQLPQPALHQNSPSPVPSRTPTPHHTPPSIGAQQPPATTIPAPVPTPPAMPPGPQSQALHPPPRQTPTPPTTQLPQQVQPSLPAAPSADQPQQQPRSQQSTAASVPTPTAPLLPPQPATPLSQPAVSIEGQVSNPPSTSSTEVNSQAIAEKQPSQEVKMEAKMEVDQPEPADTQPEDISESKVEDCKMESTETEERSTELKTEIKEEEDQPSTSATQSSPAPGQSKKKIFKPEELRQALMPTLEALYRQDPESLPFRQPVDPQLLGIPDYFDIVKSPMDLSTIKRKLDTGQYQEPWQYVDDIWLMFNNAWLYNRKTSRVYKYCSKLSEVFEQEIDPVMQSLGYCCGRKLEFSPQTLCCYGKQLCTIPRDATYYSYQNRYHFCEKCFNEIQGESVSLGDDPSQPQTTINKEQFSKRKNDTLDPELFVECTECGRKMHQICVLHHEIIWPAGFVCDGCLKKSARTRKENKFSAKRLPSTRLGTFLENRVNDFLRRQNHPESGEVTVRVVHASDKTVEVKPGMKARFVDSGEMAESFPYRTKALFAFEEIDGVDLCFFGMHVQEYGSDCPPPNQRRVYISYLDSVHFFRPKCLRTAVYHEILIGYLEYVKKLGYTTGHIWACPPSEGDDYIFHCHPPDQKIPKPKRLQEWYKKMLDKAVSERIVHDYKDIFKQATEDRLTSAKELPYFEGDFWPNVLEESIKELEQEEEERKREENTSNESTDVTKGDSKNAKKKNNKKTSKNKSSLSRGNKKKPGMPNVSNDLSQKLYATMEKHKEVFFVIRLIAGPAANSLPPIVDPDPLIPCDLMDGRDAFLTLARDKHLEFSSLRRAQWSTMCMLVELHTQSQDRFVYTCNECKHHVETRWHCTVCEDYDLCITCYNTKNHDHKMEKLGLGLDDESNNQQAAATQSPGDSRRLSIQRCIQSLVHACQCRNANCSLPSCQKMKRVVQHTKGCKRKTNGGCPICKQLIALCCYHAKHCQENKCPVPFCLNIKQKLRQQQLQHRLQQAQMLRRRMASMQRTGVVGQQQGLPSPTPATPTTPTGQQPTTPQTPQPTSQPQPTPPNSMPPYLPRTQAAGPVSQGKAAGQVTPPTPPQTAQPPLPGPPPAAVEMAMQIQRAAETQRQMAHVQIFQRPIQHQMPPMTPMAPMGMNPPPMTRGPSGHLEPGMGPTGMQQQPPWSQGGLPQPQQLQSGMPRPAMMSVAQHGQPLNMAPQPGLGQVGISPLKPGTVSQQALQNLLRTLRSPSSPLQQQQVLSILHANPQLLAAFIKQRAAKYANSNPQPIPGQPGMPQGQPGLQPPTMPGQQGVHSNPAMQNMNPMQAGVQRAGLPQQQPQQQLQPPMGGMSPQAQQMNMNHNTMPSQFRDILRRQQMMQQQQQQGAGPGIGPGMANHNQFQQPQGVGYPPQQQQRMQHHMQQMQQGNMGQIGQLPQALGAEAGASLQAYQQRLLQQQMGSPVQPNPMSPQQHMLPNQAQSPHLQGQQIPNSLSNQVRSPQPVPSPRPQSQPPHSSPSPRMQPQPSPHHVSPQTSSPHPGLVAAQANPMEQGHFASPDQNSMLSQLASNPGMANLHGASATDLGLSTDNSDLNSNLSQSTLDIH
Procedure, shortened: as §1

TE-8 cells [1] = test: Cell growth inhibitory activity, TE-8 cells (Test Example 3); type: cell-based; conditions: Homo sapiens, 72 h, cultured for 3 days, CellTiter-Glo
Procedure, shortened: (§2)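 LK2 and TE-8 […] cells in RPMI 1640 with 10% FBS exposed to 10-point 4-fold dilutions (10 mM to 38 nM, stock series) for 3 days. ATP luminescence (CellTiter-Glo 2.0) at day 0 and day 3 gave survival as (T3−C0)/(C3−C0)×100; GI50 from semilog plot.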

TE-8 cells [2] = test: Antitumor activity in TE-8 cell subcutaneous transplant model (Test Example 5); type: in vivo, female BALB/c-nu/nu mice; conditions: TE-8 subcutaneous transplant model, dose 2 mg/kg/day, test end day
Excerpt: [Test Example 5] Evaluation of Antitumor Activity in TE-8 Cell Subcutaneous Transplant Model
TE-8 cells were transplanted at a rate of 1×10^7 cells/head subcutaneously into a right abdominal site of each of female BALB/c-nu/nu mice, and 9 days after (Example 73) or 10 days after (Examples 35 and 84), the mice were grouped into groups each consisting of 5 mice based on an estimated tumor volume (longer diameter×shorter diameter×shorter diameter/2) and the weight. The TE-8 cells were purchased from Riken Cell Bank. The female BALB/c-nu/nu mice were purchased from Charles River Laboratories Japan, Inc.
(§3) From the day of grouping, the compound of Example 73 at a dose set to 2 mg/kg/day was orally administered in accordance with a schedule of twice a day continuously for 9 days (BID x 9). The estimated tumor volume of each individual was measured from the day of grouping until 18 days after the transplantation (test end day).
as §3, with “Besides, from” for “From”, “[…]” for “73”, “11” for “9”, “11).” for “9).”, “21” for “18”
The antitumor activity in LK2 cell subcutaneous transplant model of Test Example 4, the antitumor activity in TE-8 cell subcutaneous transplant model of Test Example 5, the antitumor activity in KARPASS-422 cell subcutaneous transplant model of Test Example 6, the antitumor activity in NMC10-15 cell subcutaneous transplant model of Test Example 7, and the antitumor activity in VCaP cell subcutaneous transplant model of Test Example 8 were respectively calculated on the end dates of the tests in accordance with the following equation: Tumor Growth Inhibition Rate %=(1−TVCt/TVCc)×100 TVC=(individual tumor volume on test end day)−(individual tumor volume on grouping day)
TVCt: average of TVC values of administration group
TVCc: average of TVC values of non-administration group

LK2 cells = test: Cell growth inhibitory activity, LK2 cells (Test Example 3); type: cell-based; conditions: Homo sapiens, LK-2, 72 h, cultured for 3 days, CellTiter-Glo
Procedure, shortened: as §2

H3K27Ac = test: Intracellular H3K27Ac inhibitory activity in LK2 cells (Test Example 2); type: cell-based; conditions: Homo sapiens, LK-2, cultured with compound for 3 hours, read-out: Test Example 2 H3K27Ac Inhibition (LK2) IC50
Procedure, shortened: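 Human squamous lung cancer LK2 cells (40000/well) cultured overnight at 37 °C, 5% CO2 before treatment. After paraformaldehyde fixation, peroxide quench and blocking, H3K27 acetylation detected with anti-acetyl-H3K27 rabbit mAb (4 °C overnight) and HRP secondary; chemiluminescent read-out.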

Chain of CREBBP (Q92793 whole entry): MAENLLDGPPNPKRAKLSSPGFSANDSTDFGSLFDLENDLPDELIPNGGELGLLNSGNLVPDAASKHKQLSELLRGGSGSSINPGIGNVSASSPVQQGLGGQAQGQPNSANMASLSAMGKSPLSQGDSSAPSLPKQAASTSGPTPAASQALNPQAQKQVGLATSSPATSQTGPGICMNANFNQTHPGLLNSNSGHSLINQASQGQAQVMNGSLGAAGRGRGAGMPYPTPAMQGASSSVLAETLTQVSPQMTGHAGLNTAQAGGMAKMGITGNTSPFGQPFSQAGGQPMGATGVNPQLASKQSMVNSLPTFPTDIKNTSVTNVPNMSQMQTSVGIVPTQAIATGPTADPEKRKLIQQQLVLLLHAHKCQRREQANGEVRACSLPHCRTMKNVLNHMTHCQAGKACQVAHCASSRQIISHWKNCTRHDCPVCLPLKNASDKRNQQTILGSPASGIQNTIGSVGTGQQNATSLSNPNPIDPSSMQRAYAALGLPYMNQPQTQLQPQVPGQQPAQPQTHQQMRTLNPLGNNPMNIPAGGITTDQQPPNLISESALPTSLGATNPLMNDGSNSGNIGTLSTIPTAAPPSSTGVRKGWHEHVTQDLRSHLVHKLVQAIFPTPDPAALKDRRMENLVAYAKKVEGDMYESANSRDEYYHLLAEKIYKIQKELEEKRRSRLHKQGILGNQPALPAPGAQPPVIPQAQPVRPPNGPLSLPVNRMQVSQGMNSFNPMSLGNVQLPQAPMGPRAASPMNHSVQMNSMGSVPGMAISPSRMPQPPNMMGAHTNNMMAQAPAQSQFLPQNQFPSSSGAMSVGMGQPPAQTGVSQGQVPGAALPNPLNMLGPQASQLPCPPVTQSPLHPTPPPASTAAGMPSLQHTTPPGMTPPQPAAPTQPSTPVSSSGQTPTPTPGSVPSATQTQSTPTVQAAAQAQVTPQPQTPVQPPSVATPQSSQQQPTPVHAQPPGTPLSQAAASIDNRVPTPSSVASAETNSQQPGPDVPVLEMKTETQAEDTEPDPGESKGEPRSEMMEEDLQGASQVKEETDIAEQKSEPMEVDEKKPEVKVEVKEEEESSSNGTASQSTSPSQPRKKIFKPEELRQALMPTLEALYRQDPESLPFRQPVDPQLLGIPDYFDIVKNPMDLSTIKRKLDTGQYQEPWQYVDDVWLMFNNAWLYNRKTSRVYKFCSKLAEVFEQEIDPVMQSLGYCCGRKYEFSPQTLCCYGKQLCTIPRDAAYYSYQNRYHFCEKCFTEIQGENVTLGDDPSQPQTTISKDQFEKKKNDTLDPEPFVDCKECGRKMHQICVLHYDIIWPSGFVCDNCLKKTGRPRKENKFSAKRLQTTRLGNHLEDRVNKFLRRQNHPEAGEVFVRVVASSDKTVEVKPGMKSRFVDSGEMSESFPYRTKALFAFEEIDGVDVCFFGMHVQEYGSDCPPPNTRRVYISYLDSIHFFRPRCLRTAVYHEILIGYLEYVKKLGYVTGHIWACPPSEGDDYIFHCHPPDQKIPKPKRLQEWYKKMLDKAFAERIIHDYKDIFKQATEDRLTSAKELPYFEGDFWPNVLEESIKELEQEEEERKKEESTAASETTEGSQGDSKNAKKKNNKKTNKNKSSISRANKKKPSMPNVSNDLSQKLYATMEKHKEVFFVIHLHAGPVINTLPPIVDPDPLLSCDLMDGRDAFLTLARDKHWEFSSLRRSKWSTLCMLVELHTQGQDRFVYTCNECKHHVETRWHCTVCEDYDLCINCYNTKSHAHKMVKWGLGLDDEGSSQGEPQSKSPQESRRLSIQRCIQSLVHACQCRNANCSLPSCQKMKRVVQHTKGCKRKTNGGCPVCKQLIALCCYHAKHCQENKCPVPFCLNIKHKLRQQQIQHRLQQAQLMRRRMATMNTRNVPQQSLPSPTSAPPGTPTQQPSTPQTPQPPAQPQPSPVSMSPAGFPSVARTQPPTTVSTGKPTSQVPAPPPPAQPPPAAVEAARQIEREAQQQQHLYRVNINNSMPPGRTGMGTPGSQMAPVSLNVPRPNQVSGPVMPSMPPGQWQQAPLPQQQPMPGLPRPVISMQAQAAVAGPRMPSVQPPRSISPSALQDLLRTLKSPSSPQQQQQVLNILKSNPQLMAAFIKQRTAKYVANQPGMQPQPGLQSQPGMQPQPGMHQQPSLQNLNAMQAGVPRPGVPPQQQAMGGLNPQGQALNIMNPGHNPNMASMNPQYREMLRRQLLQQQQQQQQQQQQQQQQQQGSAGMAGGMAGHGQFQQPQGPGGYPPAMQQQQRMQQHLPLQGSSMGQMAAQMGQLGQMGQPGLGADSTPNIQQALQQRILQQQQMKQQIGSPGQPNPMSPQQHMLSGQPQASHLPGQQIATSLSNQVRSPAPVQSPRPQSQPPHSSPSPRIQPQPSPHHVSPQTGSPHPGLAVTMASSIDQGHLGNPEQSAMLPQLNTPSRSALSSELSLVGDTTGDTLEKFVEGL

| SMILES | IC50 (CREBBP) | IC50 (EP300) | GI50 (TE-8 cells [1]) | Tumor Growth Inhibition Rate (TE-8 cells [2]) | GI50 (LK2 cells) | IC50 (H3K27Ac) |
| --- | --- | --- | --- | --- | --- | --- |
| COc1ccc(C2(C(=O)N3C[C@H](F)C[C@@H]3C(=O)Nc3ccc4c(n3)CC(=O)N4)CCCCC2)cc1 [Example 66, (4R)-4-Fluoro-1-{[1-(4-methoxyphenyl)cyclohexyl]carbonyl}-N-(2-oxo-2,3-dihydro-1H-pyrrolo[3,2-b]pyridin-5-yl)-D-prolinamide] | 73 nM | 35 nM | 847 nM | 54% | 548 nM | 17 nM |
| COc1ccc(C2(C(=O)N3C[C@H](F)C[C@@H]3C(=O)Nc3ccc4c(n3)CC(=O)N4)CCC(F)(F)CC2)cc1 [Example 73, (4R)-1-{[4,4-Difluoro-1-(4-methoxyphenyl)cyclohexyl]carbonyl}-4-fluoro-N-(2-oxo-2,3-dihydro-1H-pyrrolo[3,2-b]pyridin-5-yl)-D-prolinamide] | 148 nM | 52 nM | 620 nM | 65% | 610 nM | 70 nM |
| O=C(Nc1ccc2[nH]ncc2n1)[C@H]1[C@H](O)[C@@H](F)CN1C(=O)C1(c2ccc(OC(F)F)cc2)CCC(F)(F)CC1 [Example 95] | 51 nM | 36 nM | 246 nM |  | 179 nM | 20 nM |
| COCO[C@@H]1CN(C(=O)C2(c3ccc(OC)cc3)CCC(F)(F)CC2)[C@H]1C(=O)Nc1ccc2[nH]ncc2n1 [Example 96, (2R,3R)-1-{[4,4-Difluoro-1-(4-methoxyphenyl)cyclohexyl]carbonyl}-3-(methoxymethoxy)-N-(1H-pyrazolo[4,3-b]pyridin-5-yl)azetidine-2-carboxamide] | 2170 nM | 2470 nM | > 10000 nM |  | > 10000 nM | > 1000 nM |
| COc1ccc(C2(C(=O)N3C[C@H](F)C[C@@H]3C(=O)Nc3ccc4[nH]c(C)cc4n3)CCC(F)(F)CC2)cc1 [Example 97, (4R)-1-{[4,4-Difluoro-1-(4-methoxyphenyl)cyclohexyl]carbonyl}-4-fluoro-N-(2-methyl-1H-pyrrolo[3,2-b]pyridin-5-yl)-D-prolinamide] | 123 nM | 70 nM | 1180 nM |  | 854 nM | 218 nM |
| CC(C)(O)c1ccc(C2(C(=O)N3C[C@H](F)C[C@@H]3C(=O)Nc3ccc4[nH]ncc4n3)CCC(F)(F)CC2)cc1 [Example 98, (4R)-1-({4,4-Difluoro-1-[4-(2-hydroxypropan-2-yl)phenyl]cyclohexyl}carbonyl)-4-fluoro-N-1H-pyrazolo[4,3-b]pyridin-5-yl-D-prolinamide] | 202 nM | 76 nM | 331 nM |  | 267 nM | 62 nM |
| CS(=O)(=O)c1ccc(C2(C(=O)N3C[C@H](F)C[C@@H]3C(=O)Nc3ccc4[nH]ncc4c3C#N)CCC(F)(F)CC2)cc1 [Example 99, (4R)—N-(4-Cyano-1H-indazol-5-yl)-1-({4,4-difluoro-1-[4-(methylsulfonyl)phenyl]cyclohexyl}carbonyl)-4-fluoro-D-prolinamide] | 205 nM | 76 nM | 399 nM |  | 300 nM | 62 nM |
| COc1ccc(C2(C(=O)N3C[C@H](F)C[C@@H]3C(=O)Nc3ccc4[nH]ncc4c3F)CCC(F)(F)CC2)cc1 [Example 100] | 95 nM | 67 nM | 1370 nM |  | 660 nM | 243 nM |
| CC(=O)Nc1ccc(C2(C(=O)N3C[C@H](F)C[C@@H]3C(=O)Nc3ccc4[nH]ncc4n3)CCC(F)(F)CC2)cc1 [Example 101, (4R)-1-({1-[4-(acetylamino)phenyl]-4,4-difluorocyclohexyl}carbonyl)-4-fluoro-N-1H-pyrazolo[4,3-b]pyridin-5-yl-D-prolinamide] | 235 nM | 120 nM | 1050 nM |  | 707 nM | 240 nM |
| CS(=O)(=O)Nc1ccc(C2(C(=O)N3C[C@H](F)C[C@@H]3C(=O)Nc3ccc4[nH]ncc4n3)CCC(F)(F)CC2)cc1 [Example 102, (4R)-1-[(4,4-Difluoro-1-{4-[(methylsulfonyl)amino]phenyl}cyclohexyl)carbonyl]-4-fluoro-N-1H-pyrazolo[4,3-b]pyridin-5-yl-D-prolinamide] | 84 nM | 40 nM | 439 nM |  | 323 nM | 126 nM |
| CNCc1cc2nc(NC(=O)[C@H]3C[C@@H](F)CN3C(=O)C3(c4ccc(OC(F)F)cc4)CCC(F)(F)CC3)ccc2[nH]1 [Example 103, (4R)-1-({1-[4-(Difluoromethoxy)phenyl]-4,4-difluorocyclohexyl}carbonyl)-4-fluoro-N-{2-[(methylamino)methyl]-1H-pyrrolo[3,2-b]pyridin-5-yl}-D-prolinamide] | 77 nM | 41 nM | 304 nM |  | 184 nM | 34 nM |
| O=C(Nc1ccc2[nH]ncc2n1)[C@H]1C[C@@H](F)CN1C(=O)C1(c2ccc(NS(=O)(=O)c3ccccc3)cc2)CCC(F)(F)CC1 [Example 104, (4R)-1-[(4,4-Difluoro-1-{4-[(phenylsulfonyl)amino]phenyl}cyclohexyl)carbonyl]-4-fluoro-N-1H-pyrazolo[4,3-b]pyridin-5-yl-D-prolinamide] | 58 nM | 26 nM | 656 nM |  | 512 nM | 138 nM |
| COCc1cc2nc(NC(=O)[C@H]3C[C@@H](F)CN3C(=O)C3(c4ccc(OC(F)F)cc4)CCC(F)(F)CC3)ccc2[nH]1 [Example 105, (4R)-1-({1-[4-(Difluoromethoxy)phenyl]-4,4-difluorocyclohexyl}carbonyl)-4-fluoro-N-[2-(methoxymethyl)-1H-pyrrolo[3,2-b]pyridin-5-yl]-D-prolinamide] | 78 nM | 50 nM | 989 nM |  | 753 nM | 192 nM |
| O=C(Nc1ccc2[nH]c(CO)cc2n1)[C@H]1C[C@@H](F)CN1C(=O)C1(c2ccc(OC(F)F)cc2)CCC(F)(F)CC1 [Example 106, (4R)-1-({1-[4-(Difluoromethoxy)phenyl]-4,4-difluorocyclohexyl}carbonyl)-4-fluoro-N-[2-(hydroxymethyl)-1H-pyrrolo[3,2-b]pyridin-5-yl]-D-prolinamide] | 43 nM | 24 nM | 337 nM |  | 250 nM | 39 nM |
| COc1ccc(C2(C(=O)N(C)[C@H](CO)C(=O)Nc3ccc4[nH]ncc4n3)CCC(F)(F)CC2)cc1 [Example 107, 4,4-Difluoro-N-[(2R)-3-hydroxy-1-oxo-1-(1H-pyrazolo[4,3-b]pyridin-5-ylamino)propan-2-yl]-1-(4-methoxyphenyl)-N-methylcyclohexanecarboxamide] | 155 nM | 49 nM | 195 nM |  | 99.9 nM | 14 nM |
